# Results from patent publication US9174991B2, “Crystalline form of pemetrexed disodium” (Azad Pharmaceutical Ingredients AG, priority 2009, dated 2015).
# Counter-ions that a name gives are not always drawn. Like-named read-outs stand apart in the source and are kept apart here.
# Legend:
# [1] = starting material, before storage
# Experimental: HPLC analysis was done on an Agilent 1100 system equipped with DAD detector using a Zorbax SB-Phenyl column (150×4.6 mm, 3 μm). Measurements were done at 230 nm wavelengths at 25° C. using a flow of 1.0 mL/min and 8 min post-run time. As mobile phase water containing 0.03% TFA and acetonitrile containing 0.025% TFA were used, solvents were HPLC grade. Sample preparation: 10 mg sample in 25 mL water:ACN=1:1, 5 uL injection. Retention time Pemetrexed Disodium: 10.3 min.
# PXRD: Routine PXRD measurements were carried out on a Bruker AXS D8Advance diffractometer equipped with CuKα source with CuKβ filter and a VANTEC detector (Ser. No.: 202964). Measurement parameters: 3° 2theta to 39.9° 2theta, step time: 2s, step size: 0.022°, T=25° C., X-ray generator: 35 kV/40 mA.
# [2] = 70° C., 5 mbar; for change in HPLC-purity upon vacuum drying (in words): up to 9 d
# Experimental: (§1) To investigate the stability of the different forms of Pemetrexed Disodium a stability test concerning storage at different relative humidity, storage in the presence of light and stability under drying conditions was carried out.
# Four samples were stored at 70° 5 mbar in laboratory vacuum oven. IPC were taken after 2 d, 9 d
# (§2) HPLC analysis was done on an Agilent 1100 system equipped with DAD detector using a Zorbax SB-Phenyl column (150×4.6 mm, 3 μm). Measurements were done at 230 nm wavelengths at 25° C. using a flow of 1.0 mL/min and 8 min post-run time. […] Sample preparation: 10 mg sample in 25 mL water:ACN=1:1, 5 uL injection.
# [3] = for H2O (KFT) / HPLC-purity (10.5 min) / PXRD / HPLC-purity: dark, air
# [4] = for change in HPLC purity in the presence of light (in words) / change in color in the presence of light (in words): text says after 16 d
# Experimental: as §1
# The samples were stored in double PE plastic bags and exposed to daylight IT=20° C. to 25° C. IPCs were taken after 15 d.
# as §2
# [5] = 5% to 12% relative humidity, 2 d, measured 11.7% (Form A 5.8%), 23° C.
# [6] = 5% to 12% relative humidity, 5 d, measured 9.5% (Form A 5.3%), 24° C.
# [7] = 5% to 12% relative humidity, 9 d, measured 9% (Form A 6%), 24° C.
# [8] = 5% to 12% relative humidity, 16 d, measured 8.5% (Form A 5.8%), 24° C.
# [9] = 27% to 33% relative humidity, 2 d, measured 29.8% (Form A 28%), 23° C.
# [10] = 27% to 33% relative humidity, 5 d, measured 29% (Form A 27%), 24° C.
# [11] = 27% to 33% relative humidity, 9 d, measured 31% (Form A 30%), 24° C.
# [12] = 27% to 33% relative humidity, 16 d, measured 30.4% (Form A 28.7%), 24° C.
# [13] = 39% to 50% relative humidity, 2 d, measured 41.1% (Form A 39%), 23° C.
# [14] = 39% to 50% relative humidity, 5 d, measured 42.8% (Form A 38.6%), 24° C.
# [15] = 39% to 50% relative humidity, 9 d, measured 48% (Form A 47%), 24° C.
# [16] = 39% to 50% relative humidity, 16 d, measured 47.3% (Form A 46.4%), 24° C.
# [17] = 60% to 70% relative humidity, 2 d, measured 61%, 22° C. (Form A 54%, 23° C)
# [18] = 60% to 70% relative humidity, 5 d, measured 63% (Form A 57%), 24° C.
# [19] = 60% to 70% relative humidity, 9 d, measured 69% (Form A 68%), 24° C.
# [20] = 60% to 70% relative humidity, 16 d, measured 66.9% (Form A 67.2%), 24° C.
# [21] = double PE plastic bags, daylight, 20° C. to 25° C., 15 d
# [22] = daylight, listed as Pemetrexed Disodium Form A
smiles,measurement,setting,value
"Nc1nc(O)c2c(CCc3ccc(C(=O)N[C@@H](CCC(=O)O)C(=O)O)cc3)c[nH]c2n1 [2.5 hydrate, disodium N-[4-[2-(2-amino-4,7-dihydro-4-oxo-3H-pyrrolo[2,3-d]-pyrimidin-5-yl)ethyl]benzoyl]-L-glutamic acid salt]",HPLC-purity (10.5 min),[1],99.86%
same,PXRD,[1],2.5 hydrate
same,HPLC-purity (10.5 min),[2]; 2 d,99.88%
same,PXRD,[2]; 2 d,2.5 hydrate
same,HPLC-purity (10.5 min),[2]; 9 d,99.80%
same,H2O (KFT),"[2]; 9 d, listed as Pemetrexed Disodium 2.5 hydrate",7.9%
same,change in HPLC-purity upon vacuum drying (in words),[2],no significant change
same,change in water content (in words),"[3]; 5% to 12% rel. humidity (for Form A and Form IV: 7% to 12%), up to 16 d, listed as Pemetrexed Disodium 2.5 hydrate",no significant change
same,change in HPLC-purity (in words),"[3]; 5% to 12% rel. humidity (text for Form A: 7% to 12%), up to 16 d, listed as Pemetrexed Disodium 2.5 hydrate",no significant change
same,H2O (KFT),[3]; [5],8.9%
same,HPLC-purity (10.5 min),[3]; [5],99.74%
same,PXRD,[3]; [5],2.5 hydrate
same,HPLC-purity (10.5 min),[3]; [6],99.82%
same,PXRD,[3]; [6],2.5 hydrate
same,HPLC-purity (10.5 min),[3]; [7],99.90%
same,PXRD,[3]; [7],2.5 hydrate
same,HPLC-purity,[3]; [8],99.80%
same,PXRD,[3]; [8],2.5 hydrate
same,change in water content (in words),"[3]; 27% to 33% rel. humidity, up to 16 d, listed as Pemetrexed Disodium 2.5 hydrate",slight increase
same,HPLC-purity,[3]; [9],99.82%
same,PXRD,[3]; [9],2.5 hydrate
same,HPLC-purity,[3]; [10],99.91%
same,PXRD,[3]; [10],2.5 hydrate
same,HPLC-purity,[3]; [11],99.84%
same,PXRD,"[3]; 27% to 33% relative humidity, 9 d, measured 31% (Form A 30%), 24° C., listed as Pemetrexed Disodium 2.5 hydrate",traces of Pemetrexed Disodium Heptahydrate
same,HPLC-purity,[3]; [12],99.64%
same,HPLC-purity,[3]; [13],99.83%
same,PXRD,"[3]; 39% to 50% relative humidity, 2 d, measured 41.1% (Form A 39%), 23° C., listed as Pemetrexed Disodium 2.5 hydrate",formation of Pemetrexed Disodium Heptahydrate
same,HPLC-purity,[3]; [14],99.62%
same,PXRD,[3]; [14],Heptahydrate
same,PXRD,"[3]; 39% to 50% relative humidity, 5 d, measured 42.8% (Form A 38.6%), 24° C., listed as Pemetrexed Disodium 2.5 hydrate",transformation seems to be complete
same,HPLC-purity,[3]; [15],99.74%
same,PXRD,[3]; [15],Heptahydrate
same,HPLC-purity,[3]; [16],99.86%
same,PXRD,[3]; [16],Heptahydrate
same,change in water content (in words),"[3]; 40% to 50% rel. humidity, up to 16 d, listed as Pemetrexed Disodium 2.5 hydrate",increase
same,HPLC-purity,[3]; [17],99.73%
same,PXRD,[3]; [17],Heptahydrate
same,PXRD,"[3]; 60% to 70% relative humidity, 2 d, measured 61%, 22° C. (Form A 54%, 23° C), listed as Pemetrexed Disodium 2.5 hydrate",transformation to Pemetrexed Disodium Heptahydrate is complete
same,HPLC-purity,[3]; [18],99.86%
same,PXRD,[3]; [18],Heptahydrate
same,HPLC-purity,[3]; [19],99.84%
same,PXRD,[3]; [19],Heptahydrate
same,HPLC-purity,[3]; [20],99.83%
same,PXRD,[3]; [20],Heptahydrate
same,change in HPLC purity in any of the samples (in words),"[3]; all relative humidities tested (5% to 70%), up to 16 d",No significant change
same,HPLC-purity,"[4]; daylight study, Start",99.73%
same,change in HPLC purity in the presence of light (in words),[4]; daylight,do not show significant changes
same,change in color in the presence of light (in words),[4]; daylight,do not show significant changes
same,HPLC-purity,[4]; [21],99.74%
"Nc1nc(O)c2c(CCc3ccc(C(=O)N[C@@H](CCC(=O)O)C(=O)O)cc3)c[nH]c2n1 [Form A, disodium N-[4-[2-(2-amino-4,7-dihydro-4-oxo-3H-pyrrolo[2,3-d]-pyrimidin-5-yl)ethyl]benzoyl]-L-glutamic acid salt]",HPLC-purity (10.5 min),[1],99.59%
same,PXRD,[1],Form A
same,HPLC-purity (10.5 min),[2]; 2 d,99.67%
same,PXRD,[2]; 2 d,Form A
same,Aspect,[2]; 9 d,beige
same,HPLC-purity (10.5 min),[2]; 9 d,99.41%
same,change in HPLC-purity upon vacuum drying (in words),[2]; listed as Pemetrexed Disodium Form A,significant decrease
same,change in water content (in words),"[3]; 5% to 12% rel. humidity (for Form A and Form IV: 7% to 12%), up to 16 d, listed as Pemetrexed Disodium Form A",does not show a significant change
same,change in HPLC-purity (in words),"[3]; 5% to 12% rel. humidity (text for Form A: 7% to 12%), up to 16 d, listed as Pemetrexed Disodium Form A",does not show a significant change
same,H2O (KFT),[3]; [5],3.5%
same,HPLC-purity (10.5 min),[3]; [5],99.59%
same,PXRD,[3]; [5],Form A
same,HPLC-purity (10.5 min),[3]; [6],99.33%
same,PXRD,[3]; [6],Form A
same,HPLC-purity (10.5 min),[3]; [7],99.58%
same,PXRD,[3]; [7],Form A
same,HPLC-purity,[3]; [8],99.50%
same,PXRD,[3]; [8],Form A
same,change in HPLC-purity (in words),"[3]; 27% to 33% rel. humidity, after 16 d",without visible change
same,change in water content (in words),"[3]; 27% to 33% rel. humidity, up to 16 d, listed as Pemetrexed Disodium Form A",significant in increase
same,HPLC-purity,[3]; [9],99.60%
same,HPLC-purity,[3]; [10],99.43%
same,PXRD,[3]; [10],Form A
same,HPLC-purity,[3]; [11],99.57%
same,PXRD,[3]; [11],Form A
same,HPLC-purity,[3]; [12],99.69%
same,PXRD,[3]; [12],Form A
same,HPLC-purity,[3]; [13],99.68%
same,PXRD,[3]; [13],Form A
same,HPLC-purity,[3]; [14],99.64%
same,PXRD,[3]; [14],Form A
same,HPLC-purity,[3]; [15],99.62%
same,PXRD,[3]; [15],Form A
same,HPLC-purity,[3]; [16],99.70%
same,PXRD,[3]; [16],Form A
same,change in HPLC-purity (in words),"[3]; 40% to 50% rel. humidity, after 16 d",without visible change
same,change in water content (in words),"[3]; 40% to 50% rel. humidity, up to 16 d, listed as Pemetrexed Disodium Form A",significant in increase
same,uptake of water,[3]; 60% to 70% rel. humidity,21%
same,change in HPLC-purity (in words),"[3]; 60% to 70% rel. humidity, after 9 d",without significant change
same,HPLC-purity,[3]; [17],99.71%
same,PXRD,[3]; [17],Form A
same,HPLC-purity,[3]; [18],99.51%
same,PXRD,[3]; [18],Form A
same,HPLC-purity,[3]; [19],99.71%
same,PXRD,[3]; [19],Heptahydrate
same,PXRD,"[3]; 60% to 70% relative humidity, 9 d, measured 69% (Form A 68%), 24° C., listed as Pemetrexed Disodium Form A",complete transformation to Pemetrexed Disodium Heptahydrate
same,HPLC-purity,[3]; [20],99.72%
same,PXRD,[3]; [20],Heptahydrate
same,HPLC-purity,"[4]; daylight study, Start",99.71%
same,change in HPLC purity in the presence of light (in words),[4]; [22],a lot of decomposition products
same,change in color in the presence of light (in words),[4]; [22],significant formation of color
same,Aspect,[4]; [21],beige
same,H2O (KFT),[4]; [21],2.44%
same,HPLC-purity,[4]; [21],95.83%
